{"source": "paper PMC9674596", "about": "“Origin of acetylcholine antagonism in ELIC, a bacterial pentameric ligand-gated ion channel” (Communications Biology, 2022)", "key": {"wild-type ELIC [1]": {"target": "T1, wild-type ELIC (Dickeya chrysanthemi, UniProt P0C7B7, INS163G)", "T1 construct": "expressed in transfected cells; host or cells: Xenopus laevis oocytes injected with cRNA from ELIC-pTLN", "assay": "Two-electrode voltage clamp, whole-cell currents of wild-type ELIC expressed in Xenopus laevis oocytes", "format": "cell-based, Erwinia chrysanthemi", "description": "(§1) Stage V-VI Xenopus laevis oocytes were isolated[72] and deflocculated enzymatically in ND96 buffer without Ca^2+ (96 mM NaCl, 2 mM KCl, 1 mM MgCl2, 2 mM pyruvate, 5 mM HEPES, pH 7.4), but supplemented with 1 mg/mL collagenase B and 1 mg/mL trypsin inhibitor, for 2 h at room temperature under constant stirring. The deflocculation buffer was then gradually removed by washing the oocytes in ND96 buffer (96 mM NaCl, 2 mM KCl, 1 mM MgCl2, 1 mM CaCl2, 2 mM pyruvate, 5 mM HEPES, pH 7.4) for several iterations. The oocytes were then allowed to stir for an additional hour at room temperature under constant stirring with the buffer being periodically replaced until clear. To obtain optimal receptor expression, individually selected and healthy oocytes were injected with 0.2 ng cRNA for wild-type ELIC and 5 ng cRNA for mutants. Subsequently, oocytes were incubated for one day at 16 °C in ND96^+ buffer (96 mM NaCl, 2 mM KCl, 1 mM MgCl2, 1 mM CaCl2, 2 mM pyruvate, and 5 mM HEPES at pH 7.6). After expression, injected oocytes were placed in a RC-1Z oocyte chamber (Harvard Apparatus; Hamden, CT) containing buffer (pH 7.4) composed of 150 mM NaCl, 0.5 mM BaCl2, 10 mM HEPES, and 1 mM dithiothreitol or 1 µM atropine if cysteamine, or ACh, was used in the experiment, respectively. The presence of the reducing agent, dithiothreitol, ensures that the sulfhydryl group of cysteamine remains reduced.\n(§2) Once in the oocyte chamber, whole-cell currents were recorded using a two-electrode voltage-clamp apparatus (OC-725C oocyte clamp; Harvard Apparatus), with a buffer flow rate of 5–10 mL min^−1. Currents in response to various additions of cysteamine and/or ACh, were measured with the transmembrane voltage clamped at −60 mV. Dose response curves for each wild-type and mutant ELIC were acquired from at least five oocytes in two different batches.\n(§3) For identifying the half maximal effective concentration (EC50) and apparent Hill coefficient (nH) of cysteamine, dose response curves were created by taking the magnitude of each cysteamine-activated peak current (I) and normalizing this value to the maximal peak current in the presence of excess agonist (Imax). The log (base 10) cysteamine concentration in molar was then plotted on the x-axis against the fractional response (I/Imax) on the y-axis. The data was fitted using nonlinear regression with a variable slope sigmoidal dose response (Eq. 1, below) in GraphPad Prism (v.8.0.0).1 y=1/1+10^nH^LogEC50−X\nIndividual EC50 and Hill coefficients were averaged for each oocyte to derive a mean ± standard deviation. […] […] The log (base 10) ACh concentration was then plotted on the x-axis against the fractional response (I/Io) on the y-axis. Subsequent steps were the same as above for deriving a cysteamine EC50 and Hill coefficient. The individual IC50 and Hill coefficients were averaged for each oocyte to derive a mean ± one standard deviation. Lastly, to identify four normalized response values, cysteamine at the 10% maximal effective concentration (EC10), 20% maximal effective concentration (EC20), EC50 and 90% maximal effective concentration (EC90), was applied in the presence and absence of 25 mM ACh. The cysteamine-activated peak current with 25 mM ACh, was normalized to the cysteamine-activated peak current without ACh."}, "ELIC I79Y": {"target": "T2, ELIC I79Y (Dickeya chrysanthemi, UniProt P0C7B7, I79Y/INS163G)", "T2 construct": "expressed in transfected cells; host or cells: Xenopus laevis oocytes injected with cRNA from ELIC-pTLN", "assay": "Two-electrode voltage clamp, I79Y mutant ELIC expressed in Xenopus laevis oocytes", "format": "cell-based, Erwinia chrysanthemi", "description": "as §1, §2, §3\nIndividual EC50 and Hill coefficients were averaged for each oocyte to derive a mean ± standard deviation. For identifying a half maximal inhibitory concentration (IC50) and Hill coefficient of ACh, a concentration of cysteamine corresponding to its EC50 was used in the presence of increasing concentrations of ACh. Peak currents elicited from cysteamine with ACh (I) were normalized to the initial cysteamine peak current in the absence of ACh (Io). The log (base 10) ACh concentration was then plotted on the x-axis against the fractional response (I/Io) on the y-axis. Subsequent steps were the same as above for deriving a cysteamine EC50 and Hill coefficient. The individual IC50 and Hill coefficients were averaged for each oocyte to derive a mean ± one standard deviation. Lastly, to identify four normalized response values, cysteamine at the 10% maximal effective concentration (EC10), 20% maximal effective concentration (EC20), EC50 and 90% maximal effective concentration (EC90), was applied in the presence and absence of 25 mM ACh. […]"}, "wild-type ELIC [2]": {"target": "T1, wild-type ELIC", "conditions": "cited from earlier work"}, "ELIC A75D/F133W": {"target": "T3, ELIC A75D/F133W (Dickeya chrysanthemi, UniProt P0C7B7, A75D/F133W/INS163G)", "T3 construct": "expressed in transfected cells; host or cells: Xenopus laevis oocytes injected with cRNA; DNA construct synthesised by Twist Bioscience", "assay": "Two-electrode voltage clamp, A75D/F133W double mutant ELIC expressed in Xenopus laevis oocytes", "format": "cell-based, Erwinia chrysanthemi", "description": "as §1, §2, §3\n(§4) Individual EC50 and Hill coefficients were averaged for each oocyte to derive a mean ± standard deviation. For identifying a half maximal inhibitory concentration (IC50) and Hill coefficient of ACh, a concentration of cysteamine corresponding to its EC50 was used in the presence of increasing concentrations of ACh. Peak currents elicited from cysteamine with ACh (I) were normalized to the initial cysteamine peak current in the absence of ACh (Io). The log (base 10) ACh concentration was then plotted on the x-axis against the fractional response (I/Io) on the y-axis. Subsequent steps were the same as above for deriving a cysteamine EC50 and Hill coefficient. The individual IC50 and Hill coefficients were averaged for each oocyte to derive a mean ± one standard deviation. Lastly, to identify four normalized response values, cysteamine at the 10% maximal effective concentration (EC10), 20% maximal effective concentration (EC20), EC50 and 90% maximal effective concentration (EC90), was applied in the presence and absence of 25 mM ACh. The cysteamine-activated peak current with 25 mM ACh, was normalized to the cysteamine-activated peak current without ACh."}, "ELIC F133W": {"target": "ELIC F133W (Dickeya chrysanthemi, UniProt P0C7B7, F133W)", "assay": "cell-based", "format": "cell-based, Erwinia chrysanthemi", "conditions": "F133W", "description": "as §1, §2, §3, §4"}, "ELIC Y38W [3]": {"test_system": "ELIC Y38W", "assay": "Two-electrode voltage clamp, Y38W mutant ELIC expressed in Xenopus laevis oocytes", "format": "cell-based, Erwinia chrysanthemi", "conditions": "Y38W", "description": "as §1, §2, §3, §4"}, "ELIC Y38W [4]": {"target": "ELIC Y38W (Dickeya chrysanthemi, UniProt P0C7B7, Y38W)", "assay": "Two-electrode voltage clamp, Y38W mutant ELIC expressed in Xenopus laevis oocytes", "format": "cell-based, Erwinia chrysanthemi", "conditions": "Y38W", "description": "as §1, §2, §3, §4"}, "ELIC L240A (L9′A)": {"target": "T4, ELIC L240A (L9′A) (Dickeya chrysanthemi, UniProt P0C7B7, L239A)", "T4 construct": "expressed in transfected cells; host or cells: Xenopus laevis oocytes injected with cRNA from ELIC-pTLN", "assay": "Two-electrode voltage clamp, L240A (L9′A) mutant ELIC expressed in Xenopus laevis oocytes", "format": "cell-based, Erwinia chrysanthemi", "description": "as §1, §2, §3\nIndividual EC50 and Hill coefficients were averaged for each oocyte to derive a mean ± standard deviation. For identifying a half maximal inhibitory concentration (IC50) and Hill coefficient of ACh, a concentration of cysteamine corresponding to its EC50 was used in the presence of increasing concentrations of ACh. […]"}, "[5]": {"conditions": "ACh 0.5 mM to 50 mM, followed by 5 mM cysteamine"}, "[6]": {"conditions": "cysteamine as agonist, read-out: Activation EC50"}, "[7]": {"conditions": "read-out: Cysteamine concentration corresponding to EC90"}}, "note": "“Also recorded” adds a separate entry of the source."}
{"compound": "NCCS", "note": "[cysteamine]", "values": [{"measurement": "Cysteamine concentration corresponding to EC10", "setting": "wild-type ELIC [1]; WT", "value": 200, "unit": "µM"}, {"measurement": "Cysteamine concentration corresponding to EC20", "setting": "wild-type ELIC [1]; WT", "value": 300, "unit": "µM"}, {"measurement": "Activation Hill coefficient", "setting": "wild-type ELIC [1]; WT ELIC, agonist activation", "value": "2.6 ± 0.4"}, {"measurement": "EC50", "setting": "wild-type ELIC [1]; WT ELIC, agonist-activated peak current, −60 mV, mean ± s.d., read-out: Activation EC50", "value": "600 ± 100", "unit": "µM"}, {"measurement": "Peak current on application of ligand alone", "setting": "wild-type ELIC [1]; WT, ACh 0.5 mM to 50 mM, followed by 5 mM cysteamine", "value": "robust peak current"}, {"measurement": "EC90", "setting": "wild-type ELIC [1]; WT, read-out: Cysteamine concentration corresponding to EC90", "value": 1300, "unit": "µM"}, {"measurement": "Increase in EC50 for cysteamine relative to wild-type", "setting": "ELIC I79Y", "value": 24, "unit": "fold"}, {"measurement": "Peak current on application of ligand alone", "setting": "ELIC I79Y; [5]", "value": "robust peak current"}, {"measurement": "Activation Hill coefficient", "setting": "ELIC I79Y; estimate, cysteamine application for 30 s, 1.5 mM to 100 mM", "value": "2.2 ± 0.3"}, {"measurement": "EC50", "setting": "ELIC I79Y; estimate, cysteamine application for 30 s, 1.5 mM to 100 mM, read-out: Activation EC50", "value": "14000 ± 1000", "unit": "µM"}, {"measurement": "Action on ELIC", "setting": "wild-type ELIC [2]", "value": "agonists"}, {"measurement": "Cysteamine concentration corresponding to EC10", "setting": "ELIC A75D/F133W", "value": 3900, "unit": "µM"}, {"measurement": "Cysteamine concentration corresponding to EC20", "setting": "ELIC A75D/F133W", "value": 4800, "unit": "µM"}, {"measurement": "Activation by amine (whole-cell response)", "setting": "ELIC A75D/F133W; 25 mM amine, cysteamine at its EC50", "value": "still activated"}, {"measurement": "Activation Hill coefficient", "setting": "ELIC A75D/F133W; cysteamine as agonist", "value": "3.8 ± 0.3"}, {"measurement": "EC50", "setting": "ELIC A75D/F133W; [6]", "value": "6900 ± 700", "unit": "µM"}, {"measurement": "EC90", "setting": "ELIC A75D/F133W; [7]", "value": 12300, "unit": "µM"}, {"measurement": "Cysteamine concentration corresponding to EC10", "setting": "ELIC F133W", "value": 1600, "unit": "µM"}, {"measurement": "Cysteamine concentration corresponding to EC20", "setting": "ELIC F133W", "value": 2300, "unit": "µM"}, {"measurement": "Increase in EC50 for cysteamine relative to wild-type", "setting": "ELIC F133W", "value": 7, "unit": "fold"}, {"measurement": "Activation Hill coefficient", "setting": "ELIC F133W; cysteamine as agonist", "value": "2.3 ± 0.3"}, {"measurement": "EC50", "setting": "ELIC F133W; [6]", "value": "4300 ± 600", "unit": "µM"}, {"measurement": "Peak current on application of ligand alone", "setting": "ELIC F133W; [5]", "value": "robust peak current"}, {"measurement": "EC90", "setting": "ELIC F133W; [7]", "value": 11300, "unit": "µM"}, {"measurement": "Change in EC50 for cysteamine compared to wild-type", "setting": "ELIC Y38W [3]", "value": "unchanged"}, {"measurement": "Cysteamine concentration corresponding to EC10", "setting": "ELIC Y38W [4]", "value": 100, "unit": "µM"}, {"measurement": "Cysteamine concentration corresponding to EC20", "setting": "ELIC Y38W [4]", "value": 200, "unit": "µM"}, {"measurement": "Activation Hill coefficient", "setting": "ELIC Y38W [4]; cysteamine as agonist", "value": "1.4 ± 0.2"}, {"measurement": "EC50", "setting": "ELIC Y38W [4]; [6]", "value": "500 ± 100", "unit": "µM"}, {"measurement": "Peak current on application of ligand alone", "setting": "ELIC Y38W [4]; [5]", "value": "robust peak current"}, {"measurement": "EC90", "setting": "ELIC Y38W [4]; [7]", "value": 2600, "unit": "µM"}, {"measurement": "Current on application of ligand alone", "setting": "ELIC L240A (L9′A); L9′A, 30 s applications of ACh 0.5 to 50 mM, then 5 mM cysteamine", "value": "robust peak current; also recorded: robust activation"}, {"measurement": "Activation Hill coefficient", "setting": "ELIC L240A (L9′A); L240A (L9′A), cysteamine as agonist", "value": "2.8 ± 0.1"}, {"measurement": "EC50", "setting": "ELIC L240A (L9′A); L240A (L9′A), cysteamine as agonist, read-out: Activation EC50", "value": "150 ± 10", "unit": "µM"}]}
